Assay results reported in patent US9637453B2, “3-spirocyclic-6-hydroxamic acid tetralins as HDAC inhibitors” (Forma Therapeutics, Inc., priority 2015, dated 2017).

Columns and labels:
[1] = biological target: T1, Full length human recombinant HDAC6 (Homo sapiens, UniProt Q9UBN7); experiment: In vitro histone deacetylase assay, enzymatic HDAC6 (electrophoretic mobility shift assay); type: biochemical; details: 1 nM HDAC6; 2 μM peptide substrate FAM-RHKK(Ac)—NH2; 25° C.; 12 concentrations; read-out: HDAC6 Activity Range (IC50)
T1 construct: Full length human recombinant HDAC6 and HDAC11 proteins were expressed in baculoviral system
T1 sequence (Q9UBN7 1-1215): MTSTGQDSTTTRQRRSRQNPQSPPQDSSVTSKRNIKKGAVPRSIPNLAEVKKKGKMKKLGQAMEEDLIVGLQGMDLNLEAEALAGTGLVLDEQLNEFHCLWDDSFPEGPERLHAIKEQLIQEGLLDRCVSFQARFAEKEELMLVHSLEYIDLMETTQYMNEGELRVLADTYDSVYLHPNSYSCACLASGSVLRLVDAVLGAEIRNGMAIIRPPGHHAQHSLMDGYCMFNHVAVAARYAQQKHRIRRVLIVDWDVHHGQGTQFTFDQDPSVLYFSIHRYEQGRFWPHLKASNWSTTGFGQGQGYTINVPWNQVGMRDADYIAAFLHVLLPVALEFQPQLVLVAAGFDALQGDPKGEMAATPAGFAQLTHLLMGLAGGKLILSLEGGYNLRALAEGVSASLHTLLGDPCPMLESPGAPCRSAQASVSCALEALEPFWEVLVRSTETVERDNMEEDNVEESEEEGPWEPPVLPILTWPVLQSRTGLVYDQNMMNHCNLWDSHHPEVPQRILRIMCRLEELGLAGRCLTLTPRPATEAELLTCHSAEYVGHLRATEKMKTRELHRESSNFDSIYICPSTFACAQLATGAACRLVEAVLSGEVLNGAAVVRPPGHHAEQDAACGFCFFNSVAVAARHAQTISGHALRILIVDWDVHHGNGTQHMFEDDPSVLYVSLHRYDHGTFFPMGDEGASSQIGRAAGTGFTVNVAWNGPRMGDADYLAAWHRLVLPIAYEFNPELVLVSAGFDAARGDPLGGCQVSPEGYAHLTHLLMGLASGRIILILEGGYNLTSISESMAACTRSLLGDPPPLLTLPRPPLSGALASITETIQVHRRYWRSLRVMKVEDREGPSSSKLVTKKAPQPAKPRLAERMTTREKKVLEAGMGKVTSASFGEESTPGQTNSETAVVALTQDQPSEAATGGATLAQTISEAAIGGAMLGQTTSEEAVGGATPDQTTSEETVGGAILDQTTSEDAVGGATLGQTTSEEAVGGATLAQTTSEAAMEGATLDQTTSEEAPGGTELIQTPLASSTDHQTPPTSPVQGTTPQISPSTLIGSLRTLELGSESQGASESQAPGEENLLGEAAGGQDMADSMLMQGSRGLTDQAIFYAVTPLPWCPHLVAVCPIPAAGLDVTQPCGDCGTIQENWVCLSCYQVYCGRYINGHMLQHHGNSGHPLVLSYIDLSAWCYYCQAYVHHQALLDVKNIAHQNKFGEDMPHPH
Procedure, shortened: (§1)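 Baculovirus-expressed full-length enzymes (HDAC6 1 nM, FAM-RHKK(Ac)-NH2; HDAC11 10 nM, FAM-RHKK(tri-fluor-Ac)-NH2), 2 μM substrate, HEPES pH 7.5, 25°C, 12-point 3× dilutions. Product/substrate separated by microfluidic mobility shift after SDS quench; IC50 from 4-parameter fit, reported as +/++/+++ bins.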

[2] = biological target: T2, Full length human recombinant HDAC11 (Homo sapiens, UniProt Q96DB2); experiment: In vitro histone deacetylase assay, enzymatic HDAC11 (electrophoretic mobility shift assay); type: biochemical; details: 10 nM HDAC11; 2 μM peptide substrate FAM-RHKK(tri-fluor-Ac)—NH2; 25° C.; 12 concentrations; read-out: HDAC11 Activity Range (IC50)
T2 construct: Full length human recombinant HDAC6 and HDAC11 proteins were expressed in baculoviral system
T2 sequence (Q96DB2 1-347): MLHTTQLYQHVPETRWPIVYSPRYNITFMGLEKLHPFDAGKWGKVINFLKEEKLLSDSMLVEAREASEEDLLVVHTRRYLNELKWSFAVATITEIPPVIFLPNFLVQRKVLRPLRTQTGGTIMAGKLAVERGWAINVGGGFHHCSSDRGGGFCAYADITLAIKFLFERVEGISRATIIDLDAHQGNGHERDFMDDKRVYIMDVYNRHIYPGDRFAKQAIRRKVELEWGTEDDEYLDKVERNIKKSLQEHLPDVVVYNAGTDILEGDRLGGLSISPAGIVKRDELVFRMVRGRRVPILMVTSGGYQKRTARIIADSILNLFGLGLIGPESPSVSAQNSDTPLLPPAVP
Procedure, shortened: as §1

| Structure (SMILES) | IC50 [1] [nM] | IC50 [2] [nM] |
| --- | --- | --- |
| O=C(NO)c1ccc2c(c1)C[C@]1(CC2)CCN(Cc2cccc(Cl)c2)C1=O [Compound I-101, (R)-1′-(3-chlorobenzyl)-N-hydroxy-2′-oxo-3,4-dihydro-1H-spiro[naphthalene-2,3′-pyrrolidine]-7-carboxamide] | ≤ 100 | ≤ 100 |
| COc1ccc(CN2CC[C@]3(CCc4ccc(C(=O)NO)cc4C3)C2=O)cc1 [Compound I-102, (R)—N-hydroxy-1′-(4-methoxybenzyl)-2′-oxo-3,4-dihydro-1H-spiro[naphthalene-2,3′-pyrrolidine]-7-carboxamide] | ≤ 100 | ≤ 100 |
| O=C(NO)c1ccc2c(c1)C[C@]1(CC2)CCN(Cc2ccccc2F)C1=O [Compound I-103, (R)-1′-(2-fluorobenzyl)-N-hydroxy-2′-oxo-3,4-dihydro-1H-spiro[naphthalene-2,3′-pyrrolidine]-7-carboxamide] | ≤ 100 | ≤ 100 |
| O=C(NO)c1ccc2c(c1)C[C@]1(CC2)CCN(Cc2ccc3ccccc3c2)C1=O [Compound I-104, (R)—N-hydroxy-1′-(naphthalen-2-ylmethyl)-2′-oxo-3,4-dihydro-1H-spiro[naphthalene-2,3′-pyrrolidine]-7-carboxamide] | ≤ 100 | ≤ 100 |
| O=C(NO)c1ccc2c(c1)C[C@]1(CC2)CCN(Cc2ccccc2OC(F)F)C1=O [Compound I-105, (R)-1′-(2-(difluoromethoxy)benzyl)-N-hydroxy-2′-oxo-3,4-dihydro-1H-spiro[naphthalene-2,3′-pyrrolidine]-7-carboxamide] | ≤ 100 | ≤ 100 |
| O=C(NO)c1ccc2c(c1)C[C@]1(CC2)CCN(c2ccc(Oc3ccccc3)cc2)C1=O [Compound I-106, (R)—N-hydroxy-2′-oxo-1′-(4-phenoxyphenyl)-3,4-dihydro-1H-spiro[naphthalene-2,3′-pyrrolidine]-7-carboxamide] | ≤ 100 | ≤ 100 |
| O=C(NO)c1ccc2c(c1)C[C@]1(CC2)CCN(c2cnc3ccccc3c2)C1=O [Compound I-107, (R)—N-hydroxy-2′-oxo-1′-(quinolin-3-yl)-3,4-dihydro-1H-spiro[naphthalene-2, 3′-pyrrolidine]-7-carboxamide] | ≤ 100 | ≤ 100 |
| O=C(NO)c1ccc2c(c1)C[C@]1(CC2)CCN(c2cccc3c2OCC3)C1=O [Compound I-108, (R)-1′-(2,3-dihydrobenzofuran-7-yl)-N-hydroxy-2′-oxo-3,4-dihydro-1H-spiro[naphthalene-2,3′-pyrrolidine]-7-carboxamide] | ≤ 100 | > 500 |
| Cc1nn(C)cc1N1CC[C@]2(CCc3ccc(C(=O)NO)cc3C2)C1=O [Compound I-109, (R)-1′-(1,3-dimethyl-1H-pyrazol-4-yl)-N-hydroxy-2′-oxo-3,4-dihydro-1H-spiro[naphthalene-2,3′-pyrrolidine]-7-carboxamide] | ≤ 100 | > 500 |
| O=C(NO)c1ccc2c(c1)C[C@]1(CC2)CCN(c2ccc3nccn3c2)C1=O [Compound I-110, (R)—N-hydroxy-1′-(imidazo[1,2-a]pyridin-6-yl)-2′-oxo-3,4-dihydro-1H-spiro[naphthalene-2,3′-pyrrolidine]-7-carboxamide] | ≤ 100 | 100 to 500 |
| O=C(NO)c1ccc2c(c1)C[C@]1(CC2)CCN(c2cnc3ccccn23)C1=O [Compound I-111, (R)—N-hydroxy-1′-(imidazo[1,2-a]pyridin-3-yl)-2′-oxo-3,4-dihydro-1H-spiro[naphthalene-2,3′-pyrrolidine]-7-carboxamide] | ≤ 100 | 100 to 500 |
| O=C(NO)c1ccc2c(c1)C[C@@]1(CC2)CCN(c2ccc(Cl)c(Cl)c2)C1=O [Compound I-112, (S)-1′-(3,4-dichlorophenyl)-N-hydroxy-2′-oxo-3,4-dihydro-1H-spiro[naphthalene-2,3′-pyrrolidine]-7-carboxamide] | ≤ 100 | > 500 |
| Cc1ccc(N2CC[C@@]3(CCc4ccc(C(=O)NO)cc4C3)C2=O)c(C)c1 [Compound I-113, (S)-1′-(2,4-dimethylphenyl)-N-hydroxy-2′-oxo-3,4-dihydro-H-spiro[naphthalene-2,3′-pyrrolidine]-7-carboxamide] | ≤ 100 | > 500 |
| COc1ccccc1N1CC[C@@]2(CCc3ccc(C(=O)NO)cc3C2)C1=O [Compound I-114, (S)—N-hydroxy-1′-(2-methoxyphenyl)-2′-oxo-3,4-dihydro-1H-spiro[naphthalene-2,3′-pyrrolidine]-7-carboxamide] | ≤ 100 | > 500 |
| O=C(NO)c1ccc2c(c1)C[C@@]1(CC2)CCN(c2ccc3c(c2)OCO3)C1=O [Compound I-115, (S)-1′-(benzo[d][1,3]dioxol-5-yl)-N-hydroxy-2′-oxo-3,4-dihydro-1H-spiro[naphthalene-2,3′-pyrrolidine]-7-carboxamide] | ≤ 100 | > 500 |
| O=C(NO)c1ccc2c(c1)C[C@@]1(CC2)CCN(c2ccc(Oc3ccccc3)cc2)C1=O [Compound I-116, (S)—N-hydroxy-2′-oxo-1′-(4-phenoxyphenyl)-3,4-dihydro-1H-spiro[naphthalene-2,3′-pyrrolidine]-7-carboxamide] | ≤ 100 | > 500 |
| O=C(NO)c1ccc2c(c1)C[C@]1(CC2)CCN(c2cccc(OCCN3CCOCC3)c2)C1=O [Compound I-117, (R)—N-hydroxy-1′-(3-(2-morpholinoethoxy)phenyl)-2′-oxo-3,4-dihydro-1H-spiro[naphthalene-2,3′-pyrrolidine]-7-carboxamide] | ≤ 100 | > 500 |
| O=C(NO)c1ccc2c(c1)C[C@@]1(CC2)CCN(c2cnc3ccccc3c2)C1=O [Compound I-118, (S)—N-hydroxy-2′-oxo-1′-(quinolin-3-yl)-3,4-dihydro-1H-spiro[naphthalene-2,3′-pyrrolidine]-7-carboxamide] | ≤ 100 | > 500 |
| CN(C)CCc1ccc(N2CC[C@@]3(CCc4ccc(C(=O)NO)cc4C3)C2=O)cc1 [Compound I-119, (S)-1′-(4-(2-(dimethylamino)ethyl)phenyl)-N-hydroxy-2′-oxo-3,4-dihydro-1H-spiro[naphthalene-2,3′-pyrrolidine]-7-carboxamide] | ≤ 100 | > 500 |
| CN1CC[C@]2(CCc3ccc(C(=O)NO)cc3C2)C1=O [Compound I-120, (R)—N-hydroxy-1′-methyl-2′-oxo-3,4-dihydro-1H-spiro[naphthalene-2,3′-pyrrolidine]-7-carboxamide] | ≤ 100 | > 500 |
| CN1CC[C@@]2(CCc3ccc(C(=O)NO)cc3C2)C1=O [Compound I-121, (S)—N-hydroxy-1′-methyl-2′-oxo-3,4-dihydro-1H-spiro[naphthalene-2,3′-pyrrolidine]-7-carboxamide] | ≤ 100 | > 500 |
| Cc1ccc(CN2CC[C@@]3(CCc4ccc(C(=O)NO)cc4C3)C2=O)cc1 [Compound I-122, (S)—N-hydroxy-1′-(4-methylbenzyl)-2′-oxo-3,4-dihydro-1H-spiro[naphthalene-2,3′-pyrrolidine]-7-carboxamide] | ≤ 100 | ≤ 100 |
